Experiment [1] deals with TSPO. Put plainly: Receptor film autoradiography of tissue sections with [3H]PK11195 and [125I]CLINDE. To be noted: spleen, kidney, testis sections from TSPO-/- mice; 3 nM [125I]CLINDE, 1 nM [3H]PK11195. It counts as binding, mouse. On the procedure: Snap-frozen tissues were sectioned at 20 μm in a cryostat, thaw mounted on poly-L-lysine-coated slides and stored at −80° C. until day of experiment. On the day of the experiment, slides were thawed at room temperature and air dried with a cool stream of air. Total and non-specific binding were determined by incubation with 1 nM of 3H-PK11195 with or without the presence of 3 μM of PK11195 in 130 mM TRIS-HCl buffer (pH 7.4) at room temperature for 20 minutes. Following incubation, the slides were briefly dipped twice in 130 mM TRIS-HCl buffer, washed twice for 5 minutes in fresh 130 mM TRIS-HCl at room temperature. […] Images were analysed with Quantity One imaging analysis program (Bio-Rad, Hercules, Calif. USA); to assess the level of 3H-PK11195 binding, regions of interest were drawn over the tissue and an average optical density/mm^2 was calculated. […]
The organs including brain, retina, heart, kidney and testes used for film autoradiography were dissected from wild-type (TSPO^+/+), heterozygous (TSPO^+/−), and homozygous (TSPO^−/−) mice and snap-frozen in liquid nitrogen. […] Tritium standards (Amersham Biosciences, Uppsala, Sweden) co-exposed with the organ sections on each Hyperfilm-^3H (Kodak Film) at 4° C. for 60 days, were used to quantify the autoradiographically measured binding. […]

The target in experiment [2] is T1, TSPO (Mus musculus, UniProt P50637). Put plainly: Film autoradiography of brain sections after facial nerve axotomy. More on the design: from tissue; host or cells: organs of living mice (adrenal gland, kidney, heart, liver, lung, brain). The conditions noted are these: TSPO+/+ animals; after facial nerve axotomy. It counts as binding. The source says:
Procedures for facial nerve axotomy were approved by the animal ethics committee at the University of Sydney. Animals were anaesthetised using Isoflurane anaesthesia. Animals were monitored for a combination of respiration, heart rate, oxygen saturation and temperature during procedures using a variety of monitoring equipment to ensure anaesthetic depth. The surgical process commenced when foot-pad or plantar reflex could no longer be elicited. The fur on the ipsilateral (right) side of the neck was shaved from the ear downwards, and the skin cleaned using 70% ethanol. A small incision (0.5-0.7 cm in length) overlying the musculature covering the stylomastoid foramen was made. The facial nerve was identified, isolated and then transected completely. The skin of incision was closed with heal-glue. […] The animals were euthanized with CO2 3 days after the axotomy and brain tissue, including facial nerve nuclei in the brain stem and cerebellum, was immediately dissected, snap-frozen in liquid nitrogen, and then stored in −80° C. freezer until the cryostat section.
A small incision (0.5-0.7 cm) in the skin 0.5 cm dorsal and lateral to the ear was made and the facial nerve transected under an operating microscope. The incision was closed with 3M™ Vetbond™ Tissue Adhesive (St. Paul, Minn., USA). […] Mice were monitored carefully and euthanized with CO2 three days after the operation. […]

Experiment [3] has as its target T1, TSPO. Put plainly: Receptor film autoradiography of tissue sections with [3H]PK11195 and [125I]CLINDE. In kind it is binding. More on the design: Snap-frozen tissues were sectioned at 20 μm in a cryostat; from tissue; host or cells: mouse organ sections (brain, retina/eye, heart, adrenal, kidney, testis, spleen), C57BL/6 background. The procedure:
Snap-frozen tissues were sectioned at 20 μm in a cryostat, thaw mounted on poly-L-lysine-coated slides and stored at −80° C. until day of experiment. On the day of the experiment, slides were thawed at room temperature and air dried with a cool stream of air. Total and non-specific binding were determined by incubation with 1 nM of 3H-PK11195 with or without the presence of 3 μM of PK11195 in 130 mM TRIS-HCl buffer (pH 7.4) at room temperature for 20 minutes. Following incubation, the slides were briefly dipped twice in 130 mM TRIS-HCl buffer, washed twice for 5 minutes in fresh 130 mM TRIS-HCl at room temperature. The slides were finally briefly rinsed 3 times in chilled distilled H2O, dried under a cool stream of air and allowed to air dried overnight. Sections were exposed to Kodak BioMax MR film along with tritium microscales with known activity concentrations in X-ray film cassettes. Films were developed after 33 days and digitized using a GS800 Calibrated Densitometer (Bio-Rad, Hercules, Calif., USA). Images were analysed with Quantity One imaging analysis program (Bio-Rad, Hercules, Calif. USA); to assess the level of 3H-PK11195 binding, regions of interest were drawn over the tissue and an average optical density/mm^2 was calculated. Data obtained from an individual film, subject to interfilm variations, were normalized against other films through the optical density oftritium microscales.
The organs including brain, retina, heart, kidney and testes used for film autoradiography were dissected from wild-type (TSPO^+/+), heterozygous (TSPO^+/−), and homozygous (TSPO^−/−) mice and snap-frozen in liquid nitrogen. Cryostat organ sections at 18 μm were placed onto superfrost slides (Menzel-Glaser, Braunschweig, Germany) and stored in the dark at −20° C. for no longer than 1 week before the experiment. […] Tritium standards (Amersham Biosciences, Uppsala, Sweden) co-exposed with the organ sections on each Hyperfilm-^3H (Kodak Film) at 4° C. for 60 days, were used to quantify the autoradiographically measured binding. The hyperfilm was developed using Kodak GBX developer and fixer (Sigma Aldrich, St. Louis, Mo., U.S.A.). The hyperfilm was air-dried overnight before being scanned using the ArtixScan 1800f flatbed scanner (Microtek, Hsinchu, Taiwan), with greyscale using a magnification of 400% and an optical resolution of 2400 pixels per inch. No pre-scanning manipulation or filter was applied.
Tissue sections from TSPO^+/+, TSPO^+/− and TSPO^−/− mice were incubated at room temperature for 20 min in 170 mM Tris-HCl pH 7.4 containing 1 nM [^3H]PK11195 (specific activity 84 Ci/mmol; Perkin Elmer, Waltham, Mass., USA), washed twice for 5 min in 170 mM Tris-HCl, rinsed with 3 dips in ice-cold MilliQ H2O, and dried. […] Displacement binding was carried out in the presence of PK11195 (10 μM), CLINDE (10 μM) and PBR-11 (10 μM).

Consider `CC[C@@H](C)N(C)C(=O)c1cc2ccccc2c(-c2ccccc2Cl)n1` [[^3H]PK11195], for which, in experiment [1], the “binding in TSPO-/- tissue” value is “at background level and not displaceable”. Further, the “TSPO ligand binding in the injured facial nucleus” value in experiment [2] is listed as “localised induction of TSPO ligand binding”. Moreover, in experiment [3] (in vitro, validated against TSPO-/- null background), the “selectivity for TSPO” value is reported as “high selectivity”. Further, the “Specific binding in tissue sections” value in experiment [3] (spleen, kidney, testis sections from TSPO+/+ and TSPO+/- mice, 3 nM [125I]CLINDE, 1 nM [3H]PK11195) is on record as “clearly visible”.

The values are drawn from patent US20160050895A1, “TRANSGENIC NON-HUMAN ORGANISMS WITH NON-FUNCTIONAL TSPO GENES” (AUSTRALIAN NUCLEAR SCIENCE AND TECHNOLOGY ORGANIZATION, priority 2013, published 2016).
